# Data from patent US20150296765A1, “DEVICE FOR SPRAYING POWDERY CHEMICAL AGENT AND PROCESS FOR SPRAYING POWDERY CHEMICAL AGENT” (EARTH CHEMICAL CO., LTD., priority 2012, published 2015).
# Where two headings read alike, the source gives them in different places.
# Legend:
# Smoky-brown cockroaches [1] = settings: for insect pest-controlling effect (in words): summary of Tables 5 and 6
# Text: (§1) Contents of the test are as follows.
# (§2) 1. A test plot having a floor area of about 9 m^2 (270 cm in length×340 cm in width×15 cm in height) as shown in FIG. 5 was set in the interior of a room of 470 cm in length×540 cm in width. The powdery chemical agent spraying device 1 in which the cylindrical body 23 is connected directly with a pump P is placed in the center of a test plot floor face 100; corrugated boxes (A), (B), and (C) each imitating a gap between a kitchen sink and a refrigerator are arranged near one side of the test plot floor face 100 (lower portion in FIG. 5); and a bait 101 and water 103 are arranged near the other side of the test plot floor face 100 (upper portion in FIG. 5). 2. Smoky-brown cockroaches are released on the test plot floor face 100 and habituated in the corrugated boxes (A), (B), and (C), and thereafter, the powdery chemical agent 30 is sprayed from the powdery chemical agent spraying device 1 in which a discharge port of the pump P set up at a pressure of 100 kPa is connected directly with the cylindrical body 23. (Number of test insects: 49 females and 48 males for dinotefura and 50 females and 49 males for d.d-T-cyphenothrin) 3. […] 4. A knockdown (KD) rate and a mortality rate at every passage of a time based on the count number are calculated.
# Device in which the discharge port of the pump (rolling pump, manufactured by Okenseiko Co., Ltd.; two pumps of Model Nos. P30C02R8516 and M42C02R8516 coupled with each other) P is connected directly with the cylindrical body 23 (In order to confirm a breaking pressure of each of the sealing films 25 and 27, a pressure gauge G is placed therebetween.)
# Cylindrical body 23: The same as the cylindrical body 23 used in the measuring test of falling amount of chemical agent on floor face of Example 1.
# Sealing films 25 and 27: The same as the sealing films 25 and 27 used in the measuring test of falling amount of chemical agent on floor face of Example 1.
# (§3) Corrugated boxes (A) and (B): Two holes (2 cm×2 cm) through which the cockroach can come and go are opened in front of a corrugated box of 50 cm in length×50 cm in width×25 cm in height.
# (§4) Corrugated box (C): The front and the rear of a corrugated box of 50 cm in length×50 cm in width×3 cm in height are fully opened.
# Smoky-brown cockroaches [2] = tested on: Smoky-brown cockroaches
# Text: as §1
# as §2, with “FIG. 4” for “FIG. 5”, “1” for “1 in which the cylindrical body 23 is connected directly with a pump P”, “FIG. 4);” for “FIG. 5);”, “FIG. 4).” for “FIG. 5).”, “2. 28 females and 29 males of smoky-brown” for “2. Smoky-brown”, “device 1. […]” for “device 1 in which a discharge port of the pump P set up at a pressure of 100 kPa is connected directly with the cylindrical body 23. (Number of test insects: 49 females and 48 males for dinotefura and 50 females and 49 males for d.d-T-cyphenothrin)”
# Container body 11: PET bottle having a capacity of 280 mL
# Cylindrical body 23: Acrylic pipe having an inside diameter of 7 mm and a length of 50 mm
# Sealing film 25: Parafilm (trade name: […] M, 4 inch×125 feet)
# Sealing film 27: Parafilm (trade name: […] M, 4 inch×125 feet)
# The Parafilm was wound around each end part of the cylindrical body 23 to prepare the sealing films 25 and 27, respectively.
# The Parafilm was wound without being stretched and adjusted such that a pressure at the time of breaking of each of the sealing films 25 and 27 was 100 kPa.
# Sodium bicarbonate 41: 3.8 g
# as §3, §4
SMILES,KD and mortality (Smoky-brown cockroaches [1]; passage of time 2 hr) [%],KD (Smoky-brown cockroaches [1]; passage of time 14.5 hr) [%],KD and mortality (Smoky-brown cockroaches [1]; passage of time 14.5 hr) [%],KD and mortality (Smoky-brown cockroaches [1]; passage of time 16 hr) [%],KD and mortality (Smoky-brown cockroaches [1]; passage of time 23 hr) [%],KD (Smoky-brown cockroaches [1]; passage of time 43 hr) [%],KD and mortality (Smoky-brown cockroaches [1]; passage of time 43 hr) [%],KD (Smoky-brown cockroaches [1]; passage of time 48 hr) [%],KD and mortality (Smoky-brown cockroaches [1]; passage of time 48 hr) [%],KD and mortality (Smoky-brown cockroaches [1]; passage of time […]) [%],insect pest-controlling effect (in words) (Smoky-brown cockroaches [1]),KD and mortality (Smoky-brown cockroaches [2]; passage of time 3 hr) [%],KD and mortality (Smoky-brown cockroaches [2]; passage of time 6 hr) [%],KD (Smoky-brown cockroaches [2]; passage of time 18 hr) [%],KD and mortality (Smoky-brown cockroaches [2]; passage of time 18 hr) [%],KD and mortality (Smoky-brown cockroaches [2]; passage of time 24 hr) [%],KD (Smoky-brown cockroaches [2]; passage of time 32 hr) [%],KD and mortality (Smoky-brown cockroaches [2]; passage of time 32 hr) [%],KD (Smoky-brown cockroaches [2]; passage of time 48 hr) [%],KD and mortality (Smoky-brown cockroaches [2]; passage of time 48 hr) [%]
"CN/C(=N/CC1CCOC1)N[N+](=O)[O-] (stereo not drawn) [Chemical agent B, dinotefuran]",3,43,59,71,82,18,96,15,96,2,a high effectiveness is obtained,2,9,25,40,88,9,95,7,96
CC(C)=CC1C(C(=O)OC(C#N)c2cccc(Oc3ccccc3)c2)C1(C)C (stereo not drawn) [d.d-T-cyphenothrin],,,,,,,,,,,a high insect pest-exterminating effect could be obtained,,,,,,,,,
